{"source": "patent US20110135671A1", "about": "“PURINE DERIVATIVES FOR USE IN THE TREATMENT OF ALLERGIC, INFLAMMATORY AND INFECTIOUS DISEASES” (GLAXOSMITHKLINE LLC, priority 2008, published 2011)", "note": "Counter-ions that a name gives are not always drawn.", "data": [{"tested_on": "Interferon-α", "assay": "Induction of Interferon-α using cryopreserved human PBMCs", "format": "cell-based", "settings": "PBMC, 24 h, normalised to 1 uM resiquimod, read-out: mean pEC50 for induction of Interferon-α (converted)", "description": "Assay for the Induction of Interferon-α using Cryopreserved Human Peripheral Blood Mononuclear Cells (PBMCs)\nCompounds were dissolved in DMSO. Serial 2-fold dilutions with DMSO were prepared and 0.25 μl dispensed into 384-well clear Greiner polypropylene plates.\nBlood samples of up to 200 ml were obtained from healthy human donors. Whole blood in 25 ml volumes was overlaid onto 15 ml Ficoll gradients in Leucosep tubes, and centrifuged at 1000 g for 20 min. Cells in the band at the plasma/histopaque interface were carefully removed and washed twice with PBS (centrifuged at 400 g for 5 min to harvest). The final pellet was resuspended in freezing medium (90% Heat-inactivated serum, 10% DMSO) to a cell concentration of 4×10^7 cells/ml. The resuspended cells were then cryopreserved (frozen) using a rate controlled freezer, and stored at −140° C. for up to 4 months.\nIncubation and Assay for Interferon-α\nImmediately prior to assay, vials of cryopreserved (frozen) PBMCs were thawed rapidly in a water bath at 37° C. A 1:10 dilution of the cells in trypan blue was prepared and counted. The PBMCs were then diluted in growth media [RPMI 1640 containing 10% fetal calf serum (invitrogen), Penicillin+Streptavidin (Gibco cat. # 25030-024, 1:50), L-Glutamine 2 mM, and 1000 units/ml recombinant human IFN-gamma (Preprotech catalogue #300-02)] to a density of 1×10^6 cells/ml, and 50 ul/well dispensed to 384-well clear Greiner polypropylene plates containing 0.25 μl DMSO or test compound in 0.25 μl DMSO. […] Plates were incubated for 24 h at 37° C. in 5% CO2.\nA multi-isoform immunoassay was used to quantify IFN-α in PBMC supernatants. Rabbit polyclonal antibody against human IFN-α (catalogue number 31101, Stratech Scientific) was diluted 1:10000 in assay buffer (RPMI 1640 containing 10% fetal calf serum, Invitrogen) and 20 μl was added to each well of an MSD (Meso-Scale Discovery) single small-spot 384-well GAR (goat anti-rabbit antibody coated) plate. The plate was incubated for 1 h at room temperature with vigorous shaking. Following three washes with PBS, 20 μl of cell supernatant were added to each well of the plate. The plate was then incubated for 1 h at room temperature with vigorous shaking. A pair of monoclonal antibodies to IFN-α (catalogue numbers 21100 and 21112, Stratech Scientific) were labelled with sulfo-TAG (MSD), diluted 1:1000 in assay buffer and 20 μl added to each well of the plate. The plate was further incubated for 1 h at room temperature with vigorous shaking. Following three washes with PBS, 30 μl of ×2 T buffer (MSD) was added to each well and the plate was read on an MSD Sector 6000 plate reader.\nData were normalised to internal plate controls of 1 uM resiquimod (n=16) and DMSO (n=16). pEC50 values were derived by 4-parameter curve fit with IRLS in ActivityBase, from 11-point, two-fold serial dilution of test compounds.", "units": {"EC50": "µM"}, "values": [{"molecule": "CCCCNc1nc(N)c2[nH]c(=O)n(CCCN3CCN(CCC)CC3)c2n1", "note": "[Example 18, 6-Amino-2-(butylamino)-9-[3-(4-propyl-1-piperazinyl)propyl]-7,9-dihydro-8H-purin-8-one]", "EC50": "< 3.16"}, {"molecule": "CCCCOc1nc(N)c2[nH]c(=O)n(CCCCCN3CCN(C4CCCC4)CC3)c2n1", "note": "[Example 63, 6-Amino-2-(butyloxy)-9-[5-(4-cyclopentyl-1-piperazinyl)pentyl]-7,9-dihydro-8H-purin-8-one]", "EC50": "< 3.16"}, {"molecule": "CCC[C@H](C)Oc1nc(N)c2[nH]c(=O)n(CCCCCN3CCN(CC)CC3)c2n1", "note": "[Example 51, 6-Amino-9-[5-(4-ethyl-1-piperazinyl)pentyl]-2-{[(1S)-1-methylbutyl]oxy}-7,9-dihydro-8H-purin-8-one]", "EC50": "< 3.16"}, {"molecule": "CCCCNc1nc(N)c2[nH]c(=O)n(CCCCN3CCN(CCCC)CC3)c2n1", "note": "[Example 39, 6-Amino-2-(butylamino)-9-[4-(4-butyl-1-piperazinyl)butyl]-7,9-dihydro-8H-purin-8-one]", "EC50": "< 3.16"}, {"molecule": "CCC[C@@H](C)Nc1nc(N)c2[nH]c(=O)n(CCCCN3CCN(C(C)C)CC3)c2n1", "note": "[Example 74, 6-Amino-2-{[(1R)-1-methylbutyl]amino}-9-{4-[4-(1-methylethyl)-1-piperazinyl]butyl}-7,9-dihydro-8H-purin-8-one]", "EC50": "< 3.16"}, {"molecule": "CCCCNc1nc(N)c2[nH]c(=O)n(CCN3CCN(C4CCCCC4)CC3)c2n1", "note": "[Example 5, 6-Amino-2-(butylamino)-9-[2-(4-cyclohexyl-1-piperazinyl)ethyl]-7,9-dihydro-8H-purin-8-one]", "EC50": "< 3.16"}, {"molecule": "CCCCOc1nc(N)c2[nH]c(=O)n(CCCN3CCN(CCCC)CC3)c2n1", "note": "[Example 10, 6-Amino-2-(butyloxy)-9-[3-(4-butyl-1-piperazinyl)propyl]-7,9-dihydro-8H-purin-8-one]", "EC50": "< 3.16"}, {"molecule": "CC(C)N1CCN(CCCCn2c(=O)[nH]c3c(N)nc(OC4CCCC4)nc32)CC1", "note": "[Example 72, 6-Amino-2-(cyclopentyloxy)-9-{4-[4-(1-methylethyl)-1-piperazinyl]butyl}-7,9-dihydro-8H-purin-8-one]", "EC50": "< 3.16"}, {"molecule": "CCCCOc1nc(N)c2[nH]c(=O)n(CCCCN3CCNCC3)c2n1", "note": "[Example 67, 6-Amino-2-(butyloxy)-9-[4-(1-piperazinyl)butyl]-7,9-dihydro-8H-purin-8-one]", "EC50": "< 3.16"}, {"molecule": "CCC[C@H](C)Nc1nc(N)c2[nH]c(=O)n(CCCCN3CCN(C(C)C)CC3)c2n1", "note": "[Example 75, 6-Amino-2-{[(1S)-1-methylbutyl]amino}-9-{4-[4-(1-methylethyl)-1-piperazinyl]butyl}-7,9-dihydro-8H-purin-8-one]", "EC50": "< 3.16"}, {"molecule": "CCC[C@H](C)Oc1nc(N)c2[nH]c(=O)n(CCCCCN3CCN(C(C)(C)C)CC3)c2n1", "note": "[Example 53, 6-Amino-9-{5-[4-(1,1-dimethylethyl)-1-piperazinyl]pentyl}-2-{[(1S)-1-methylbutyl]oxy}-7,9-dihydro-8H-purin-8-one]", "EC50": "< 3.16"}, {"molecule": "CCCCOc1nc(N)c2[nH]c(=O)n(CCCCCN3CCNCC3)c2n1", "note": "[Example 45, 6-Amino-2-(butyloxy)-9-[5-(1-piperazinyl)pentyl]-7,9-dihydro-8H-purin-8-one]", "EC50": "< 3.16"}, {"molecule": "CCCCNc1nc(N)c2[nH]c(=O)n(CCCN3CCN(C4CCCC4)CC3)c2n1", "note": "[Example 24, 6-Amino-2-(butylamino)-9-[3-(4-cyclopentyl-1-piperazinyl)propyl]-7,9-dihydro-8H-purin-8-one]", "EC50": "< 3.16"}, {"molecule": "CCCCNc1nc(N)c2[nH]c(=O)n(CCCN3CCN(CC4CC4)CC3)c2n1", "note": "[Example 23, 6-Amino-2-(butylamino)-9-{3-[4-(cyclopropylmethyl)-1-piperazinyl]propyl}-7,9-dihydro-8H-purin-8-one]", "EC50": "< 3.16"}, {"molecule": "CCCCOc1nc(N)c2[nH]c(=O)n(CCCN3CCN(CC(C)C)CC3)c2n1", "note": "[Example 11, 6-Amino-2-(butyloxy)-9-{3-[4-(2-methylpropyl)-1-piperazinyl]propyl}-7,9-dihydro-8H-purin-8-one]", "EC50": "< 3.16"}, {"molecule": "CCCCNc1nc(N)c2[nH]c(=O)n(CCCCN3CCN(CCC)CC3)c2n1", "note": "[Example 37, 6-Amino-2-(butylamino)-9-[4-(4-propyl-1-piperazinyl)butyl]-7,9-dihydro-8H-purin-8-one]", "EC50": "< 3.16"}, {"molecule": "CC(C)Oc1nc(N)c2[nH]c(=O)n(CCCCCN3CCN(C(C)C)CC3)c2n1", "note": "[Example 70, 6-Amino-2-[(1-methylethyl)oxy]-9-{5-[4-(1-methylethyl)-1-piperazinyl]pentyl}-7,9-dihydro-8H-purin-8-one]", "EC50": "< 3.16"}, {"molecule": "CCCCOc1nc(N)c2[nH]c(=O)n(CCCCN3CCN(C4CCCC4)CC3)c2n1", "note": "[Example 34, 6-Amino-2-(butyloxy)-9-[4-(4-cyclopentyl-1-piperazinyl)butyl]-7,9-dihydro-8H-purin-8-one]", "EC50": "< 3.16"}, {"molecule": "CCCCOc1nc(N)c2[nH]c(=O)n(CCCCN3CCN(CCC)CC3)c2n1", "note": "[Example 28, 6-Amino-2-(butyloxy)-9-[4-(4-propyl-1-piperazinyl)butyl]-7,9-dihydro-8H-purin-8-one]", "EC50": "< 3.16"}, {"molecule": "CCCCNc1nc(N)c2[nH]c(=O)n(CCCCN3CCN(CC)CC3)c2n1", "note": "[Example 36, 6-Amino-2-(butylamino)-9-[4-(4-ethyl-1-piperazinyl)butyl]-7,9-dihydro-8H-purin-8-one]", "EC50": "< 3.16"}, {"molecule": "CCCCNc1nc(N)c2[nH]c(=O)n(CCCCN3CCN(CC4CC4)CC3)c2n1", "note": "[Example 42, 6-Amino-2-(butylamino)-9-{4-[4-(cyclopropylmethyl)-1-piperazinyl]butyl}-7,9-dihydro-8H-purin-8-one]", "EC50": "< 3.16"}, {"molecule": "CCCCOc1nc(N)c2[nH]c(=O)n(CCCCCN3CCN(CC)CC3)c2n1", "note": "[Example 47, 6-Amino-2-(butyloxy)-9-[5-(4-ethyl-1-piperazinyl)pentyl]-7,9-dihydro-8H-purin-8-one]", "EC50": "< 3.16"}, {"molecule": "CCCC[C@H](C)Oc1nc(N)c2[nH]c(=O)n(CCCCN3CCN(C(C)C)CC3)c2n1", "note": "[Example 69, 6-Amino-9-{4-[4-(1-methylethyl)-1-piperazinyl]butyl}-2-{[(1S)-1-methylpentyl]oxy}-7,9-dihydro-8H-purin-8-one]", "EC50": "< 3.16"}, {"molecule": "CCCCNc1nc(N)c2[nH]c(=O)n(CCCN3CCN(CC(C)C)CC3)c2n1", "note": "[Example 21, 6-Amino-2-(butylamino)-9-{3-[4-(2-methylpropyl)-1-piperazinyl]propyl}-7,9-dihydro-8H-purin-8-one]", "EC50": "< 3.16"}, {"molecule": "CCCCNc1nc(N)c2[nH]c(=O)n(CCCN3CCN(CCCC)CC3)c2n1", "note": "[Example 20, 6-Amino-2-(butylamino)-9-[3-(4-butyl-1-piperazinyl)propyl]-7,9-dihydro-8H-purin-8-one]", "EC50": "< 3.16"}, {"molecule": "CCC[C@H](C)Oc1nc(N)c2[nH]c(=O)n(CCCCCN3CCNCC3)c2n1", "note": "[Example 49, 6-Amino-2-{[(1S)-1-methylbutyl]oxy}-9-[5-(1-piperazinyl)pentyl]-7,9-dihydro-8H-purin-8-one]", "EC50": "< 3.16"}, {"molecule": "CCCCNc1nc(N)c2[nH]c(=O)n(CCCN3CCN(C)CC3)c2n1", "note": "[Example 16, 6-Amino-2-(butylamino)-9-[3-(4-methyl-1-piperazinyl)propyl]-7,9-dihydro-8H-purin-8-one]", "EC50": "< 3.16"}, {"molecule": "CCCCOc1nc(N)c2[nH]c(=O)n(CCCN3CCN(CCC)CC3)c2n1", "note": "[Example 8, 6-Amino-2-(butyloxy)-9-[3-(4-propyl-1-piperazinyl)propyl]-7,9-dihydro-8H-purin-8-one]", "EC50": "< 3.16"}, {"molecule": "CC[C@H](C)Oc1nc(N)c2[nH]c(=O)n(CCCCN3CCN(C(C)C)CC3)c2n1", "note": "[Example 68, 6-Amino-9-{4-[4-(1-methylethyl)-1-piperazinyl]butyl}-2-{[(1S)-1-methylpropyl]oxy}-7,9-dihydro-8H-purin-8-one]", "EC50": "< 3.16"}, {"molecule": "CCCCOc1nc(N)c2[nH]c(=O)n(CCCCCCN3CCN(C)CC3)c2n1", "note": "[Example 55, 6-Amino-2-(butyloxy)-9-[6-(4-methyl-1-piperazinyl)hexyl]-7,9-dihydro-8H-purin-8-one]", "EC50": "< 3.16"}, {"molecule": "CCCCOc1nc(N)c2[nH]c(=O)n(CCN3CCN(C4CCCCC4)CC3)c2n1", "note": "[Example 2, 6-Amino-2-(butyloxy)-9-[2-(4-cyclohexyl-1-piperazinyl)ethyl]-7,9-dihydro-8H-purin-8-one dihydrochloride salt]", "EC50": "< 3.16"}]}]}
